Results as given in US7348425B2, “Inhibitors of HCV replication” (Bristol-Myers Squibb Company, priority 2004, dated 2008).

Key:
[1] = molecular target: T1, HCV NS5B RdRp genotype 1b (Hepatitis C virus genotype 1b, UniProt Q9WMX2); experiment: Modified HCV NS5B RdRp enzyme assay (with preincubation); type: biochemical; settings: modified method (with preincubation)
T1 construct: The protein was expressed with an 18 amino acid C-terminal truncation to enhance the solubility; made in house; host or cells: E. coli BL21 (DE3), pET21a
T1 sequence (Q9WMX2 2420-2992): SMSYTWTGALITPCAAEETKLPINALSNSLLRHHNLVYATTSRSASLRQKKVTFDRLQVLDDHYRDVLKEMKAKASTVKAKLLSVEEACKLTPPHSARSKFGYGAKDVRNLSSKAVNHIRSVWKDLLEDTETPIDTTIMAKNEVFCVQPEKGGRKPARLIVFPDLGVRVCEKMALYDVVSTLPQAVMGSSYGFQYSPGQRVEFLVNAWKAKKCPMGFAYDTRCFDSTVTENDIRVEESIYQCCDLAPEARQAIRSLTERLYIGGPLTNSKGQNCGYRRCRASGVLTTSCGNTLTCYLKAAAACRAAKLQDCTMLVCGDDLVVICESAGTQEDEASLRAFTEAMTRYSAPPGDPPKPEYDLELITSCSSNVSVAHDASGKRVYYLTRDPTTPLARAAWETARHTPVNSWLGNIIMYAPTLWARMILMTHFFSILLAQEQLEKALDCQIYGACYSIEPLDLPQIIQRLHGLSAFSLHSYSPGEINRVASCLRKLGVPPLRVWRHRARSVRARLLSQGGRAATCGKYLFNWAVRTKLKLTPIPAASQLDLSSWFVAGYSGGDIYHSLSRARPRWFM
Procedure: HCVNS5B RdRp cloning, expression, and purification. The cDNA encoding the NS5B protein of HCV, genotype 1b, was cloned into the pET21a expression vector. The protein was expressed with an 18 amino acid C-terminal truncation to enhance the solubility. The E. coli competent cell line BL21 (DE3) was used for expression of the protein. Cultures were grown at 37° C. for ˜4 hours until the cultures reached an optical density of 2.0 at 600 nm. The cultures were cooled to 20° C. and induced with 1 mM IPTG. Fresh ampicillin was added to a final concentration of 50 μg/ml and the cells were grown overnight at 20° C.
Cell pellets (3 L) were lysed for purification to yield 15-24 mgs of purified NS5B. The lysis buffer consisted of 20 mM Tris-HCl, pH 7.4, 500 mM NaCl, 0.5% triton X-100, 1 mM DTT, 1 mM EDTA, 20% glycerol, 0.5 mg/ml lysozyme, 10 mM MgCl2, 15 ug/ml deoxyribonuclease I, and Complete TM protease inhibitor tablets (Roche). After addition of the lysis buffer, frozen cell pellets were resuspended using a tissue homogenizer. To reduce the viscosity of the sample, aliquots of the lysate were sonicated on ice using a microtip attached to a Branson sonicator. The sonicated lysate was centrifuged at 100,000×g for 1 hr at 4° C. and filtered through a 0.2 μm filter unit (Corning).
The protein was purified using three sequential chromatography steps: Heparin sepharose CL-6B, polyU sepharose 4B, and Hitrap SP sepharose (Pharmacia). The chromatography buffers were identical to the lysis buffer but contained no lysozyme, deoxyribonuclease I, MgCl2 or protease inhibitor and the NaCl concentration of the buffer was adjusted according to the requirements for charging the protein onto the column. Each column was eluted with a NaCl gradient which varied in length from 5-50 column volumes depending on the column type. After the final chromatography step, the resulting purity of the enzyme is >90% based on SDS-PAGE analysis. The enzyme was aliquoted and stored at −80° C.
Standard HCV NS5B RdRp enzyme assay. HCV RdRp genotype Ib assays were run in a final volume of 60 μl in 96 well plates (Costar 3912). The assay buffer is composed of 20 mM Hepes, pH 7.5, 2.5 mM KCl, 2.5 mM MgCl2, 1 mM DTT, 1.6 U RNAse inhibitor (Promega N2515), 0.1 mg/ml BSA (Promega R3961), and 2% glycerol. All compounds were serially diluted (3-fold) in DMSO and diluted further in water such that the final concentration of DMSO in the assay was 2%. HCV RdRp genotype 1b enzyme was used at a final concentration of 28 nM. A polyA template was used at 6 nM, and a biotinylated oligo-dT12 primer was used at 180 nM final concentration. Template was obtained commercially (Amersham 27-4110). Biotinylated primer was prepared by Sigma Genosys. ^3H-UTP was used at 0.6 μCi (0.29 μM total UTP). Reactions were initiated by the addition of enzyme, incubated at 30° C. for 60 min, and stopped by adding 25 μl of 50 mM EDTA containing SPA beads (4 μg/μl, Amersham RPNQ 0007). Plates were read on a Packard Top Count NXT after >1 hr incubation at room temperature.
Modified HCV NS5B RdRp enzyme assay. A modified enzyme assay was performed essentially as described for the standard enzyme assay except for the following: The biotinylated oligo dT12 primer was precaptured on streptavidin-coated SPA beads by mixing primer and beads in assay buffer and incubating at room temperature for one hour. Unbound primer was removed after centrifugation. The primer-bound beads were resuspended in 20 mM Hepes buffer, pH 7.5 and used in the assay at final concentrations of 20 nM primer and 0.67 μg/μl beads. Order of addition in the assay: enzyme (14 nM) was added to diluted compound followed by the addition of a mixture of template (0.2 nM), ^3H-UTP (0.6 μCi, 0.29 μM), and primer-bound beads, to initiate the reaction; concentrations given are final. Reactions were allowed to proceed for 4 hours at 30° C.
The IC50 values for compounds were determined using seven different [I]. […]

HCV replicon = HCV replicon FRET assay; type: cell-based; settings: Hepatitis C virus; FRET assay; read-out: EC50
Procedure: The IC50 values for compounds were determined using seven different [I]. IC50 values were calculated from the inhibition using the formula y=A+((B−A)/(1+((C/x)^D))). FRET Assay Preparation. To perform the HCV FRET screening assay, 96-well cell culture plates were used. The FRET peptide (Anaspec, Inc.) (Taliani et al., Anal. Biochem. 240:60-67 (1996), hereby incorporated by reference in its entirety) contains a fluorescence donor, EDANS, near one end of the peptide and an acceptor, DABCYL, near the other end. The fluorescence of the peptide is quenched by […] resonance energy transfer (RET) between the donor and the acceptor, but as the NS3 protease cleaves the peptide the products are released from RET quenching and the fluorescence of the donor becomes apparent. The assay reagent was made as follows: 5× cell Luciferase cell culture lysis reagent from Promega (#E153A) diluted to 1× with dH2O, NaCl added to 150 mM final, the FRET peptide diluted to 20 uM final from a 2 mM stock.
To prepare plates, HCV replicon cells, with or without a Renilla luciferase reporter gene, were trypsinized and placed into each well of a 96-well plate with titrated test compounds added in columns 3 through 12; columns 1 and 2 contained a control compound (HCV protease inhibitor), and the bottom row contained cells without compound. The plates were then placed in a CO2 incubator at 37 degrees C.
Assays. Subsequent to addition of the test compounds described above (FRET Assay Preparation), at various times the plate was removed and Alamar blue solution (Trek Diagnostics, #00-100) was added per well as a measure of cellular toxicity. After reading in a Cytoflour 4000 instrument (PE Biosystems), plates were rinsed with PBS and then used for FRET assay by the addition of 30 ul of the FRET peptide assay reagent described above (FRET Assay Preparation) per well. The plate was then placed into the Cytoflour 4000 instrument which had been set to 340 excite/490 emission, automatic mode for 20 cycles and the plate read in a kinetic mode. Typically, the signal to noise using an endpoint analysis after the reads was at least three-fold. Alternatively, after Alamar blue reading, plates were rinsed with PBS, 50 ul of DMEM (high glucose) without phenol red was added and plates were then used for luciferase assay using the Promega Dual-Glo Luciferase Assay System.
Compound analysis was determined by quantification of the relative HCV replicon inhibition and the relative cytotoxicity values. To calculate cytoxicity values, the average Alamar Blue fluorescence signals from the control wells were set as 100% non-toxic. The individual signals in each of the compound test wells were then divided by the average control signal and multiplied by 100% to determine […]. To calculate the HCV replicon inhibition values, an average background value was obtained from the two wells containing the highest amount of HCV protease inhibitor at the end of the assay period. These numbers were similar to those obtained from naïve Huh-7 cells.
The background numbers were then subtracted from the average signal obtained from the control wells and this number was used as 100% activity. The individual signals in each of the compound test wells were then divided by the averaged control values after background subtraction and multiplied by 100% to determine percent activity. EC50 values for a protease inhibitor titration were calculated as the concentration which caused a 50% reduction in FRET or luciferase activity. The two numbers generated for the compound plate, percent cytoxicity and percent activity were used to determine compounds of interest for further analysis.

Row | SMILES | IC50 [1] | EC50 (HCV replicon)
1 | Nc1nc2c(s1)CCCn1c-2c(C2CCCCC2)c2ccc(C(=O)O)cc21 | > 1000 nM | > 10000 nM
2 | Cc1nc2c(s1)CCCn1c-2c(C2CCCCC2)c2ccc(C(=O)NC3(C(=O)Nc4ccc(/C=C/C(=O)O)cc4)CCCC3)cc21 | 20 to 1000 nM | 1000 to 10000 nM
3 | N#CC1C(=O)Cn2c(c(C3CCCCC3)c3ccc(C(=O)O)cc32)-c2ccccc21 (centres unmarked) | 20 to 1000 nM | > 10000 nM
4 | COc1cc(CNC(=O)c2ccc3c(C4CCCCC4)c4n(c3c2)CC(=O)Nc2ccccc2-4)ccc1O | 20 to 1000 nM | < 100 nM
5 | O=C(O)c1ccc2c(C3CCCCC3)c3n(c2c1)CCCc1ocnc1-3 | > 1000 nM | > 10000 nM
6 | COC(=O)/C=C/c1ccc(NC(=O)C2(NC(=O)c3ccc4c(C5CCCCC5)c5n(c4c3)CCCc3sc(N)nc3-5)CCCC2)cc1 | > 1000 nM | > 10000 nM
7 | Nc1nc2c(s1)CCCn1c-2c(C2CCCCC2)c2ccc(C(=O)NC3(C(=O)Nc4ccc(/C=C/C(=O)O)cc4)CCCC3)cc21 | 20 to 1000 nM | 1000 to 10000 nM
8 | NC(=O)C1(NC(=O)c2ccc3c(C4CCCCC4)c4n(c3c2)CC(=O)Nc2ccccc2-4)CCCC1 | 20 to 1000 nM | 10 to 1000 nM
9 | O=C1Cn2c(c(C3CCCCC3)c3ccc(C(=O)NS(=O)(=O)N4CCN(c5ccccc5)CC4)cc32)-c2ccccc2N1 | 20 to 1000 nM | 1000 to 10000 nM
10 | COC(=O)c1ccc2c(c1)CCN(S(=O)(=O)NC(=O)c1ccc3c(C4CCCCC4)c4n(c3c1)CC(=O)Nc1ccccc1-4)C2 | 20 to 1000 nM | 1000 to 10000 nM
11 | O=C(O)/C=C/c1cccc(-c2nc(C3(NC(=O)c4ccc5c(C6CCCCC6)c6n(c5c4)CC=Cc4ccccc4-6)CCCC3)c[nH]2)c1 | 20 to 1000 nM | 10 to 1000 nM
12 | COC(=O)/C=C/c1ccc(NC(=O)C2(NC(=O)c3ccc4c(C5CCCCC5)c5n(c4c3)CCCc3ocnc3-5)CCCC2)cc1 | > 1000 nM | 1000 to 10000 nM
13 | O=C(O)/C=C/c1ccc(NC(=O)C2(NC(=O)c3ccc4c(C5CCCCC5)c5n(c4c3)CCCc3ocnc3-5)CCCC2)cc1 | 20 to 1000 nM | 10 to 1000 nM
14 | O=C(NC1(C(=O)OCc2ccccc2)CCCC1)c1ccc2c(C3CCCCC3)c3n(c2c1)CCCc1cc(O)ccc1-3 | > 1000 nM | 1000 to 10000 nM
15 | O=C(O)c1ccc2c(C3CCCCC3)c3n(c2c1)CCOc1ncccc1-3 | 20 to 1000 nM | 1000 to 10000 nM
16 | CCOC(=O)c1nc(-c2ccc(NC(=O)C3(NC(=O)c4ccc5c(C6CCCCC6)c6n(c5c4)CCCc4ccccc4-6)CCCC3)cc2)cs1 | > 1000 nM | 10 to 1000 nM
